The text below walks through data of patent US20260325500A1, “METHODS AND COMPOSITIONS FOR TREATING ACUTE STRESS DISORDER” (BioXcel Therapeutics, Inc., priority 2022, published 2026).

SMILES strings stand for the structures. Structures can show the parent of a compound that is named as a salt. Marks after values point to notes of the source that are not given here.

Data set [1] concerns motor activity (locomotion) and sedation behavior of male Swiss albino mice. Put plainly: Open field test, motor activity (locomotion) and sedation (Example 7). Format: in vivo. Here is the method:
Rationale: The spontaneous locomotor activity in terms of total distance traveled is measured in open field test. Comparatively lower distance traveled would indicate either less motor activity or sedation.
Animal groups: Swiss albino male mice (6-7 weeks old; 25-40 g weight) were distributed in 10 different experimental groups with 12 […] per group as illustrated in Table
Study drugs: The test substances (Dexmedetomidine hydrochloride and latrepirdine dihydrochloride hydrate) were dissolved in 0.9% normal saline which served as the vehicle.
Study design and dosing: Mice were brought to the laboratory and allowed to acclimatize to the environment for at least 7 days. The open field test was done in lighting conditions of 40 lux light. The mice were dosed as per the grouping in Table 10. After a post dose interval of 60 minutes, 4 mice from a group were placed in the open field and the movement was tracked for a period of 30 minutes. Once the trial was over the mice were removed from the open field and the arena was cleaned. Following this, next set of 4 mice were placed in the arena and tracked.
Statistical analysis: The distance travelled for a period of 30 minutes was analyzed in bins of 5 minutes and was compared with that of the vehicle group using one-way ANOVA followed by Dunnett's test. All statistical analyses were performed using Graph pad prism software package (Version 7 or Higher) and p value below 0.05 was considered as significant.

The subject of data set [2] is CCK-4 induced panic anxiety in rats. Description: Elevated plus maze, CCK-4 induced panic anxiety (Example 8). The format is in vivo, Wistar rats. The following applies: for Entries, % increase as compared to CCK-4/Vehicle / Entries, Mean ± SEM / Time, % increase as compared to CCK-4/Vehicle / Time, Mean ± SEM: CCK4 0.2 mg/kg i.p. The text has this:
Rationale: In the past two decades panic induction with cholecystokinin-tetrapeptide (CCK-4) as an experimental model of human anxiety has become a focus of intensive research. CCK-4 is a synthetic analog of the endogenous neuropeptide cholecystokinin (CCK), which has been found in different brain regions. Particularly, high concentrations of CCK have been detected in regions that have been implicated in the mediation of panic attacks such as the cerebral cortex, amygdala, hippocampus, and brainstem nuclei. CCK-4 dose dependently induces panic attacks in healthy controls. Thus, CCK-4 has been postulated to fulfil the criteria for an ideal and valid panicogenic agent. […] Therefore, the CCK-4 challenge paradigm can serve as a useful tool to evaluate the anti-panic potential of novel anxiolytic compounds.
Animal groups: Male Wistar Rats were purchased at a body weight of 150 g and reached a body weight of about 220 g at the time of use. Animals were distributed in 6 different experimental groups with 12 […] per group as illustrated in Table 11. Each experimental group was also coded so that the experimenter became unaware of the true experimental group at the time EPM trial.
Study drugs: All compounds/drugs were prepared in saline (0.9% NaCl).
CCK-4 was prepared at a solution of 0.2 mg/ml which when injected i.p. at a dosage volume of 1 ml/kg results in a dose of 0.2 mg/kg.
Diazepam was prepared at a solution of 1 mg/ml which when injected i.p. at a dosage volume of 1 ml/kg results in a dose of 1 mg/kg.
Latrepirdine was prepared at concentrations of 2.5, 7.5, 25 and 37.5 mg/ml which when injected i.m. at a volume of 100 μL for a rat of 250 g results in doses of 1, 3, 10 and 15 mg/kg respectively.
Study design and dosing: The rats were randomly assigned to one of the different experimental groups. Each animal was identified by its group name, cage number, series (day) of experiment, and a number (from 1 to 4) written with permanent ink on its tail. They were handled by an experimenter for about 3 min each day during 1 week prior to the day of EPM trial.
The apparatus is a PVC maze covered with Plexiglas and subdivided into four equal exploratory arms (40×10 cm), which are all interconnected by a small platform (10×10 cm). The apparatus is placed 65 cm above the floor. Two arms are opened, and two others are closed with wall (high: 10 cm).
After compound administration, rat is placed on the platform opposite a closed arm. The number of entries and the time spent in each arm are recorded during a 5 min period. The animal is considered as entered in an arm when it places its four paws in the arm.
Statistical analysis: Data was analyzed using One-Way ANOVA followed by multiple comparison with Dunnett's post-hoc test. All statistical analyses were performed using GraphPad Prism software package (Version 9) and p value below 0.05 was considered as significant.

Where [3] appears, read: 1-15 mg/kg i.m., CCK-4 treated rats.

On to `Cc1ccc2c(c1)c1c(n2CCc2ccc(C)nc2)CCN(C)C1` [latrepirdine dihydrochloride hydrate], for which, in data set [1] (1 mg/kg, 3 mg/kg and 10 mg/kg, i.p.), the distance traveled result is “did not show any significant reduction in distance traveled”. Further, the “Entries, % increase as compared to CCK-4/Vehicle” value in data set [2] (1 mg/kg i.m.) is “(47.37) %”; in data set [2] (3 mg/kg i.m.) it was “(31.58) %”; in data set [2] (10 mg/kg i.m.) it was “(73.68) * %”; in data set [2] (15 mg/kg i.m.), “(126.32) *** %”. Also, the “Entries, Mean ± SEM” value in data set [2] (1 mg/kg i.m.) stood at 2.8 ± 0.4 n; in data set [2] (3 mg/kg i.m.), 2.5 ± 0.2 n; in data set [2] (10 mg/kg i.m.) it was 3.3 ± 0.3 n; in data set [2] (15 mg/kg i.m.) it was 4.3 ± 0.4 n. Besides, the “Time, % increase as compared to CCK-4/Vehicle” value in data set [2] (1 mg/kg i.m.) is reported as “(83.33) %”; in data set [2] (3 mg/kg i.m.), “(98.48) %”; in data set [2] (10 mg/kg i.m.) it was “(158.33) ** %”; in data set [2] (15 mg/kg i.m.), “(266.67) **** %”. The “Time, Mean ± SEM” value in data set [2] (1 mg/kg i.m.) was found to be 24.2 ± 4.7 s; in data set [2] (3 mg/kg i.m.), 26.2 ± 3.3 s; in data set [2] (10 mg/kg i.m.), 34.1 ± 3.4 s; in data set [2] (15 mg/kg i.m.) it was 48.4 ± 5.3 s.

Turning to `Cc1ccc2c(c1)c1c(n2CCc2ccc(C)nc2)CCN(C)C1` [latrepirdine, 2,8-dimethyl-5-[2-(6-methylpyridin-3-yl)ethyl]-3,4-dihydro-1H-pyrido[4,3-b]indole], in data set [1] (latrepirdine, open field test), the locomotion and sedation entry is “did not cause any reduction in locomotion nor caused sedation”. In data set [2] (setting [3]), the “dose with the greatest effect on entries and time in open arms” value was determined as 15 mg/kg; the “number of entries to and time spent in the open arms, significance” value is “significant at the doses of 10 and 15 mg/kg”.
